These results are taken from ChEMBL document CHEMBL1136564, “Sordaricin antifungal agents” (2003).

The nature of experiment [1]: In vitro therapeutic index (calculated as CC50/MIC (Candida albicans)). The format is functional.
In a further experiment the test system is Nakaseomyces glabratus. Put plainly: Minimum inhibitory concentration required to inhibit 90 to 100% visible growth of Candida glabrata. The format is functional.
The test system of another experiment is Candida albicans. Put plainly: Minimum inhibitory concentration to inhibit 90 to 100% visible growth of Candida albicans. The experiment is classed as functional.
For experiment [2], the system named is HEp-2. Description: In vitro cytotoxic concentration against Hep2 cells. The format is functional. The conditions noted are these: Homo sapiens.
Experiment [3] concerns HEp-2. Description: Cytotoxic concentration against Hep2 cells; activation observed, but IC50 could not be determined. The experiment is classed as functional, cell-based. The settings on record: Homo sapiens.

Molecules are shown by their SMILES. In brackets after ≈: the same amount, converted by molar mass. Activity calls are given as the source filed them. The calls are words filed in the database; no cut-off is given here.

By MIC is commonly meant the lowest concentration found to suppress growth. Read a low MIC as inhibition by little substance. One may read the CC50 as the concentration that lowers cell viability or growth by half. For `CC(C)CCCCC(O)C12C[C@@H]3[C@H](C)CC[C@H]3C3(C=O)CC1C=C(C(C)C)[C@@]23C(=O)O` (stereo not given in full), the Therapeutic index in experiment [1] is 1.2. Moreover, the minimal inhibitory concentration (MIC) in the experiment with Nakaseomyces glabratus worked out at 32 µg/mL (≈ 74.3 µM); with Candida albicans it was 1 µg/mL (≈ 2.32 µM). For the same compound, the CC50 with HEp-2 [2] turned out to be 1.2 µg/mL (≈ 2.79 µM).
As for `CC(C)C1=CC2CC3(C=O)[C@@H]4CC[C@@H](C)[C@H]4CC2(C(=O)CCC2CCCCC2)[C@]13C(=O)O`, the Therapeutic index in experiment [1] was 3.6. Besides, the MIC in the experiment with Nakaseomyces glabratus was over 128 µg/mL; in the experiment on Candida albicans, 0.5 µg/mL (≈ 1.13 µM). In the experiment with HEp-2 [2], this compound came in with a cytotoxic concentration (CC50) of 1.8 µg/mL (≈ 4.09 µM).
As for `CCCCCCC(=O)C12C[C@@H]3[C@H](C)CC[C@H]3C3(C=O)CC1C=C(C(C)C)[C@@]23C(=O)O`, the Therapeutic index in experiment [1] is 6. For the same compound, the MIC in the experiment on Nakaseomyces glabratus turned out to be 4 µg/mL (≈ 9.65 µM); in the experiment with Candida albicans, 0.25 µg/mL (≈ 0.603 µM). This compound also gave a CC50 in the experiment with HEp-2 [2] of 1.5 µg/mL (≈ 3.62 µM).
In the case of `CCCCCCC(O)C12C[C@@H]3[C@H](C)CC[C@H]3C3(C=O)CC1C=C(C(C)C)[C@@]23C(=O)O` (stereo not given in full), the Therapeutic index in experiment [1] is 0.6. Moreover, the minimal inhibitory concentration (MIC) stood at 32 µg/mL (≈ 76.8 µM) against Nakaseomyces glabratus and 4 µg/mL (≈ 9.6 µM) against Candida albicans. For the same compound, the CC50 with HEp-2 [2] came out at 2.4 µg/mL (≈ 5.76 µM).
Turning to `CC(C)C1=CC2CC3(C=O)[C@@H]4CC[C@@H](C)[C@H]4CC2(C(=O)C#CCC2CCCC2)[C@]13C(=O)O`, in experiment [1], the Therapeutic index is over 15. Also, the MIC against Nakaseomyces glabratus was 0.125 µg/mL (≈ 0.286 µM); in the experiment with Candida albicans, under 0.06 µg/mL. In the experiment with HEp-2 [2], this compound had a CC50 of 0.9 µg/mL (≈ 2.06 µM).
For `CC(C)C1=CC2CC3(C=O)[C@@H]4CC[C@@H](C)[C@H]4CC2(C(O)CCC2CCCCC2)[C@]13C(=O)O` (stereo not given in full), in experiment [1], the Therapeutic index was 3. The minimum inhibitory concentration (MIC) with Nakaseomyces glabratus came out at 16 µg/mL (≈ 36.1 µM); in the experiment with Candida albicans, 0.5 µg/mL (≈ 1.13 µM). In the experiment on HEp-2 [2], the midpoint of cytotoxicity, the CC50, lay at 1.5 µg/mL (≈ 3.39 µM).
Turning to `CC(C)C1=CC2CC3(C=O)[C@@H]4CC[C@@H](C)[C@H]4CC2(C(=O)C#CCC2CCCCC2)[C@]13C(=O)O`, in experiment [1], the Therapeutic index was over 23.3. Besides, the MIC with Nakaseomyces glabratus is 0.5 µg/mL (≈ 1.11 µM); with Candida albicans it was under 0.06 µg/mL. The compound further showed a CC50 with HEp-2 [2] of 1.4 µg/mL (≈ 3.11 µM).
With `CC(C)CCCCC(=O)C12C[C@@H]3[C@H](C)CC[C@H]3C3(C=O)CC1C=C(C(C)C)[C@@]23C(=O)O`, the Therapeutic index in experiment [1] is 5. In addition, the MIC is over 128 µg/mL in the experiment on Nakaseomyces glabratus and 0.5 µg/mL (≈ 1.17 µM) with Candida albicans. It took 2.5 µg/mL (≈ 5.83 µM) to reach half-maximal cytotoxicity with HEp-2 [2] (CC50).
As to `CC(C)C1=CC2CC3(C=O)[C@@H]4CC[C@@H](C)[C@H]4CC2(C(=O)C#Cc2ccccc2)[C@]13C(=O)O`, the Therapeutic index in experiment [1] is 0.09. In addition, the MIC is 16 µg/mL (≈ 37.2 µM) in the experiment with Nakaseomyces glabratus and over 128 µg/mL against Candida albicans. Further, the cytotoxic concentration (CC50) in the experiment with HEp-2 [2] is over 12 µg/mL.
With `CC(C)C1=CC2CC3(C=O)[C@@H]4CC[C@@H](C)[C@H]4CC2(C(=O)CC2CCCCC2)[C@]13C(=O)O`, in experiment [1], the Therapeutic index is 3.6. The MIC was 1 µg/mL (≈ 2.34 µM) with Nakaseomyces glabratus and 0.5 µg/mL (≈ 1.17 µM) with Candida albicans. Besides, the midpoint of cytotoxicity in the experiment on HEp-2 [2], the CC50, lay at 1.8 µg/mL (≈ 4.22 µM).
Turning to `CCCCC#CC(=O)C12C[C@@H]3[C@H](C)CC[C@H]3C3(C=O)CC1C=C(C(C)C)[C@@]23C(=O)O`, in experiment [1], the Therapeutic index is over 55. Besides, the MIC with Nakaseomyces glabratus was 0.5 µg/mL (≈ 1.22 µM); with Candida albicans, under 0.06 µg/mL. Moreover, the midpoint of cytotoxicity with HEp-2 [2], the CC50, lay at 3.3 µg/mL (≈ 8.04 µM).
As for `CC(C)CCCC#CC(=O)C12C[C@@H]3[C@H](C)CC[C@H]3C3(C=O)CC1C=C(C(C)C)[C@@]23C(=O)O`, in experiment [1], the Therapeutic index was over 23.3. Moreover, the minimal inhibitory concentration (MIC) is 0.25 µg/mL (≈ 0.57 µM) in the experiment on Nakaseomyces glabratus and under 0.06 µg/mL against Candida albicans. In the experiment on HEp-2 [2], this compound yielded a CC50 of 1.4 µg/mL (≈ 3.19 µM).
Take `CC(C)CCC(O)C12C[C@@H]3[C@H](C)CC[C@H]3C3(C=O)CC1C=C(C(C)C)[C@@]23C(=O)O` (stereo not given in full): the MIC in the experiment on Nakaseomyces glabratus is 64 µg/mL (≈ 159 µM); with Candida albicans, 16 µg/mL (≈ 39.7 µM). In addition, in the experiment on HEp-2 [3], the CC50 result was “inactive”.
Take `CC(C)CCC(=O)C12C[C@@H]3[C@H](C)CC[C@H]3C3(C=O)CC1C=C(C(C)C)[C@@]23C(=O)O`: the Therapeutic index in experiment [1] is under 0.02. Moreover, the figures for the MIC against Nakaseomyces glabratus and in the experiment on Candida albicans were 1 µg/mL (≈ 2.5 µM) and over 128 µg/mL, respectively. Moreover, in the experiment with HEp-2 [2], it took 2.5 µg/mL (≈ 6.24 µM) to reach half-maximal cytotoxicity (CC50).
Taken in the same sequence, the figures for `CCCCC#CC(O)C12C[C@@H]3[C@H](C)CC[C@H]3C3(C=O)CC1C=C(C(C)C)[C@@]23C(=O)O` (stereo not given in full) were 2.3, 32 µg/mL (≈ 77.6 µM), 8 µg/mL (≈ 19.4 µM) and 18.3 µg/mL (≈ 44.4 µM).
Regarding `CC(C)CCC#CC(O)C12C[C@@H]3[C@H](C)CC[C@H]3C3(C=O)CC1C=C(C(C)C)[C@@]23C(=O)O` (stereo not given in full), in experiment [1], the Therapeutic index is 15.8. Besides, the MIC in the experiment on Nakaseomyces glabratus was 8 µg/mL (≈ 18.8 µM); against Candida albicans, 1 µg/mL (≈ 2.34 µM). Moreover, the midpoint of cytotoxicity with HEp-2 [2], the CC50, lay at 15.8 µg/mL (≈ 37 µM).
On to `CCCCCCCCCCCCCCCCC(O)C12C[C@@H]3[C@H](C)CC[C@H]3C3(C=O)CC1C=C(C(C)C)[C@@]23C(=O)O` (stereo not given in full), for which the MIC against Nakaseomyces glabratus and in the experiment with Candida albicans was over 128 µg/mL in each case.
On to `CC(C)C1=CC2CC3(C=O)[C@@H]4CC[C@@H](C)[C@H]4CC2(C(O)C#CCC2CCCCC2)[C@]13C(=O)O` (stereo not given in full), for which the Therapeutic index in experiment [1] is 42.8. For the same compound, the MIC was 4 µg/mL (≈ 8.84 µM) against Nakaseomyces glabratus and 0.25 µg/mL (≈ 0.552 µM) with Candida albicans. This compound returned a CC50 in the experiment with HEp-2 [2] of 10.7 µg/mL (≈ 23.6 µM).
Taken in the same sequence, the figures for `CC(C)C1=CC2CC3(C=O)[C@@H]4CC[C@@H](C)[C@H]4CC2(C(O)C#CCC2CCCC2)[C@]13C(=O)O` (stereo not given in full) were 14.2, 16 µg/mL (≈ 36.5 µM), 1 µg/mL (≈ 2.28 µM) and 14.2 µg/mL (≈ 32.4 µM).
For `CC(C)C1=CC2CC3(C=O)C4CC[C@@H](C)C4CC2(CCOC(=O)C2CCCC2)C13C(=O)O` (stereo not given in full), the MIC in the experiment with Nakaseomyces glabratus was 4 µg/mL (≈ 9.04 µM); against Candida albicans it was 0.125 µg/mL (≈ 0.282 µM).
Take `CC(C)C1=CC2CC3(C=O)C4CC[C@@H](C)C4CC2(CCOC(=O)Cc2ccc(N(C)C)cc2)C13C(=O)O` (stereo not given in full): the minimum inhibitory concentration (MIC) with Nakaseomyces glabratus was over 128 µg/mL; in the experiment on Candida albicans, 1 µg/mL (≈ 1.97 µM).
As for `CSc1ccc(C(=O)OCCC23CC4C(CC[C@H]4C)C4(C=O)CC2C=C(C(C)C)C43C(=O)O)cc1` (stereo not given in full), the MIC in the experiment on Nakaseomyces glabratus is over 128 µg/mL; in the experiment on Candida albicans, 2 µg/mL (≈ 4.03 µM).
Take `CC(C)C1=CC2CC3(C=O)C4CC[C@@H](C)C4CC2(CCO)C13C(=O)O` (stereo not given in full): the minimal inhibitory concentration (MIC) in the experiment on Nakaseomyces glabratus and in the experiment on Candida albicans was over 128 µg/mL in each case.
As to `CC(C)C1=CC2CC3(C=O)[C@@H]4CC[C@@H](C)[C@H]4CC2(C(O)CC2CCCCC2)[C@]13C(=O)O` (stereo not given in full), in experiment [1], the Therapeutic index is 1.6. For the same compound, the MIC in the experiment on Nakaseomyces glabratus turned out to be 8 µg/mL (≈ 18.7 µM); against Candida albicans, 2 µg/mL (≈ 4.67 µM). Also, the 50% cytotoxic concentration (CC50) with HEp-2 [2] stood at 3.1 µg/mL (≈ 7.23 µM).
